Measured values as given in US20240158446A1, “CYCLIC COMPOUND HAVING SELECTIVE INHIBITORY ACTION ON KRAS OVER HRAS AND NRAS” (CHUGAI SEIYAKU KABUSHIKI KAISHA, priority 2021, published 2024).
Where a SMILES comes first, the peptide text is derived from it. Bridges are numbered along the chain shown (N, C = ends). [ ]: non-standard residue; d: D form. The star is where a group is joined. hPhe(3-Cl-4-CF3) = N[C@@H](CCc1ccc(C(F)(F)F)c(Cl)c1)C(=O)O; NPrPhe(4-CF3) = CCCN[C@@H](Cc1ccc(C(F)(F)F)cc1)C(=O)O; NMeGly(cPent) = CN[C@H](C(=O)O)C1CCCC1; Ac4c(3,3-Me2) = CC1(C)CC(N)(C(=O)O)C1; NEtLeu = CCN[C@@H](CC(C)C)C(=O)O; NMeD = CN[C@@H](CC(=O)O)C(=O)O; NMeL = CN[C@@H](CC(C)C)C(=O)O; Morpholide = C1CN(*)CCO1; Ac5c = NC1(C(=O)O)CCCC1; NEtG = CCNCC(=O)O; Sar = CNCC(=O)O; Propyl = CCC*

Columns and labels:
[1] = target: GDP-bound KRAS wild-type protein (Homo sapiens, UniProt P01116); test: Binding to KRAS by surface plasmon resonance (SPR), Single Cycle Kinetics; conditions: SPR, Single Cycle Kinetics, GDP-bound KRAS wild-type protein; read-out: KRAS KD
Sequence of GDP-bound KRAS wild-type protein (P01116 whole entry): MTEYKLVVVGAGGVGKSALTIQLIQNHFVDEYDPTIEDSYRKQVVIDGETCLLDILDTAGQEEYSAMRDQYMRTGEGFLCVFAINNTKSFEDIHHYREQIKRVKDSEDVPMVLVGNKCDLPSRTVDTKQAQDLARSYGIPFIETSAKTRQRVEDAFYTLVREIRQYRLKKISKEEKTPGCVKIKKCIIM

[2] = target: GDP-bound NRAS wild-type protein (Homo sapiens, UniProt P01111); test: Binding to NRAS by surface plasmon resonance (SPR), Single Cycle Kinetics; conditions: ratio of KD for GDP-bound NRAS wild-type protein to KD for KRAS, SPR
Sequence of GDP-bound NRAS wild-type protein (P01111 whole entry): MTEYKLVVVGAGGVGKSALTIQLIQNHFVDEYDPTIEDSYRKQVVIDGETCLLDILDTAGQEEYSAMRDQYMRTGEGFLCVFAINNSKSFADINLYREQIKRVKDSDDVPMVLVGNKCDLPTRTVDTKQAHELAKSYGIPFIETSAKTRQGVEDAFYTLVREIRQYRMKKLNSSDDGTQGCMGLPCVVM

[3] = target: GDP-bound HRAS wild-type protein (Homo sapiens, UniProt P01112); test: Binding to HRAS by surface plasmon resonance (SPR), Single Cycle Kinetics; conditions: ratio of KD for GDP-bound HRAS wild-type protein to KD for KRAS, SPR
Sequence of GDP-bound HRAS wild-type protein (P01112 whole entry): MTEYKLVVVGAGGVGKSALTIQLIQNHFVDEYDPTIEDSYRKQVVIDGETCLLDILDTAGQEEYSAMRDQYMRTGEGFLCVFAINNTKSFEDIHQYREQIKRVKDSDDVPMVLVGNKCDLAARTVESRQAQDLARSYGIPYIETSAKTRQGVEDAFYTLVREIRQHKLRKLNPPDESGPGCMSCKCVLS

[4] = test system: human lung cancer strain NCI-H441; test: cells; conditions: NCI-H441, 96 h, read-out: NCI-H441 IC50 (nM), NCI-H441 cell proliferation, 4 days, CellTiter-Glo;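 note: cell proliferation inhibition after four days measured by CellTiter-Glo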

SMILES | Kd [1] [nM] | NRAS/KRAS (KD ratio) [2] | HRAS/KRAS (KD ratio) [3] | IC50 [4] [nM]
CCCN1C(=O)CN(C)C(=O)CN(C)C(=O)[C@H]([C@@H](C)OC)NC(=O)[C@H](CC(C)C)N(C)C(=O)C[C@@H](C(=O)N2CCOCC2)N(C)C(=O)[C@H](C2CCCC2)N(C)C(=O)C2(CC(C)(C)C2)NC(=O)[C@@H]2CCCN2C(=O)[C@H](CCc2ccc(C(F)(F)F)c(Cl)c2)NC(=O)CN(C)C(=O)[C@@H]1Cc1ccc(C(F)(F)F)cc1 [PP1963] ([NMeL]T(Me)[Sar][Sar][NPrPhe(4-CF3)][Sar][hPhe(3-Cl-4-CF3)]P[Ac4c(3,3-Me2)][NMeGly(cPent)][NMeD]-Morpholide; lactam N-11) | 0.18 | B (a compound having 3 or more and less than 10 is denoted as B) | C (A compound having a KD ratio of 0.1 or more and less than 3 is denoted as C) | 9.1
CCCN1C(=O)CN(C)C(=O)CN(C)C(=O)[C@H]([C@@H](C)OCC)NC(=O)[C@H](CC(C)C)N(C)C(=O)C[C@@H](C(=O)N2CCOCC2)N(C)C(=O)[C@H](C2CCCC2)N(C)C(=O)C2(CC(C)(C)C2)NC(=O)[C@@H]2CCCN2C(=O)[C@H](CCc2ccc(C(F)(F)F)c(Cl)c2)NC(=O)CN(C)C(=O)[C@@H]1Cc1ccc(C(F)(F)F)cc1 [PP1964] ([NMeL]T(Et)[Sar][Sar][NPrPhe(4-CF3)][Sar][hPhe(3-Cl-4-CF3)]P[Ac4c(3,3-Me2)][NMeGly(cPent)][NMeD]-Morpholide; lactam N-11) | 0.19 | B (a compound having 3 or more and less than 10 is denoted as B) | B (a compound having 3 or more and less than 10 is denoted as B) | 10.3
CCCO[C@H](C)[C@@H]1NC(=O)[C@H](CC(C)C)N(C)C(=O)C[C@@H](C(=O)N2CCOCC2)N(C)C(=O)[C@H](C2CCCC2)N(C)C(=O)C2(CC(C)(C)C2)NC(=O)[C@@H]2CCCN2C(=O)[C@H](CCc2ccc(C(F)(F)F)c(Cl)c2)NC(=O)CN(C)C(=O)[C@H](Cc2ccc(C(F)(F)F)cc2)N(CCC)C(=O)CN(C)C(=O)CN(C)C1=O [PP1965] ([NMeL]T(Propyl)[Sar][Sar][NPrPhe(4-CF3)][Sar][hPhe(3-Cl-4-CF3)]P[Ac4c(3,3-Me2)][NMeGly(cPent)][NMeD]-Morpholide; lactam N-11) | 0.3 | B (a compound having 3 or more and less than 10 is denoted as B) | B (a compound having 3 or more and less than 10 is denoted as B) | 17.4
CCCN1C(=O)CN(C)C(=O)CNC(=O)[C@H]([C@@H](C)CC)NC(=O)[C@H](CC(C)C)N(CC)C(=O)C[C@@H](C(=O)N2CCOCC2)N(C)C(=O)[C@H](C2CCCC2)N(C)C(=O)C2(CCCC2)NC(=O)[C@@H]2CCCN2C(=O)[C@H](CCc2ccc(C(F)(F)F)c(Cl)c2)NC(=O)CN(C)C(=O)[C@@H]1Cc1ccc(C(F)(F)F)cc1 [PP1967] ([NEtLeu]IG[Sar][NPrPhe(4-CF3)][Sar][hPhe(3-Cl-4-CF3)]P[Ac5c][NMeGly(cPent)][NMeD]-Morpholide; lactam N-11) | 0.36 | B (a compound having 3 or more and less than 10 is denoted as B) | B (a compound having 3 or more and less than 10 is denoted as B) | 10.9
CCCN1C(=O)CN(CC)C(=O)CNC(=O)[C@H]([C@@H](C)CC)NC(=O)[C@H](CC(C)C)N(C)C(=O)C[C@@H](C(=O)N2CCOCC2)N(C)C(=O)[C@H](C2CCCC2)N(C)C(=O)C2(CCCC2)NC(=O)[C@@H]2CCCN2C(=O)[C@H](CCc2ccc(C(F)(F)F)c(Cl)c2)NC(=O)CN(C)C(=O)[C@@H]1Cc1ccc(C(F)(F)F)cc1 [PP1968] ([NMeL]IG[NEtG][NPrPhe(4-CF3)][Sar][hPhe(3-Cl-4-CF3)]P[Ac5c][NMeGly(cPent)][NMeD]-Morpholide; lactam N-11) | 0.76 | C (A compound having a KD ratio of 0.1 or more and less than 3 is denoted as C) | C (A compound having a KD ratio of 0.1 or more and less than 3 is denoted as C) | 13.5
